Measured values from patent US8932617B2, “Methods for treating or preventing restenosis and other vascular proliferative disorders” (priority 2004, dated 2015).
pIC50: −log10 of the molar value. Several values for one entry are separate records, joined by “and”; a condition that tells them apart may be missing. Identical values can stand only once. Entries after “also recorded” stand apart in the source; their conditions may differ. Like-named read-outs stand apart in the source and are kept apart here. Marks after values point to notes of the source that are not given here.

How the values were obtained:
[1] = test system: rat carotid artery, balloon mediated injury (restenosis); test: Rat model of balloon mediated carotid artery injury (Example 1), morphometric analysis; type: in vivo; conditions: two weeks post injury; intraperitoneal injection; vs untreated injured artery
Method: To determine the ability of the ribonucleotide reductase inhibitors to affect restenosis, a rat model of balloon mediated carotid artery injury was utilized. Percutaneous transluminal carotid angioplasty (PTCA) was performed using a 2F Fogarty Embolectomy Catheter, which was inserted through the right, external carotid artery and inflated (2 atm) and deflated four times inside the right common carotid artery and rotated to cause endothelial injury. Immediately following the carotid injury, the rats received ribonucleotide reductase inhibitors, Didox (N,3,4-trihydroxybenzamide) Imidate (ethyl-3,4,5-trihydroxybenzenecarboximidate.HCl), or Hydroxyurea via intraperitoneal injection. The degree of restenosis was assessed using morphometric analysis at two weeks post injury.

[2] = test system: rat carotid artery, balloon mediated injury (restenosis); test: Rat balloon carotid injury (Example 2), morphometric analysis at 2 and 6 weeks; type: in vivo; conditions: for decrease in neointimal area / decrease in intima/media ratio: 200 mg kg^-1 d^-1 i.p. for 7 days
Text: Male Wistar rats, weighing 400-450 g (Harlan) were fed standard pellet feed and given water ad libitum. The experimental protocol was designed in accordance with Institutional ILACUC standards. Animals were anesthetized with Isoflurane (1.5-2%) in air. The right carotid artery was exposed and a 2F Fogarty balloon embolectomy catheter (Baxter) was inserted via an external carotid arteriotomy incision. The catheter was advanced to the common carotid artery, inflated to a pressure of 2 atm and rotated in a forward and retrograde direction. The catheter was then deflated and the process repeated three times. Treatment cohorts were divided into 5 groups (n=6-8/group): Control (sham operated), Didox (200 mg-kg^−1 d^−1), Imidate (200 mg kg^−1)HU (200 mg kg^−1 d^−1) and vehicle (saline). Drugs were administered daily by i.p. injection for a period of 7 days after injury. At 2 weeks post-injury, rats were euthanized by pentobarbital overdose and perfused with 10% buffered formalin Carotid arteries were removed and placed in the same fixative. Tissues were then embedded in paraffin, and 4 to 5 sections (4 μm) were cut at multiple levels. These sections were then stained with hematoxylin-eosin or elastic-van Gieson stain. Sections were examined microscopically and the cross-sectional areas of the lumen, neointima (from the internal elastic lamina to the lumen), and media were determined using digital microscopy with Spot Advanced software. The intima-to-media (I/M) ratio was then calculated from the determined mean. The data represent the mean±SD.
The effects of Didox, Imidate, and Hydroxyurea (HU) on the vascular remodeling process following arterial injury were determined using a rat model of balloon mediated carotid injury. Each compound (200 mg kg^−1 d^−1) was delivered via i.p. injection for a period of 7 days post injury. These dosages are based on previously published reports and represent ½ the maximum tolerated dose of Hydroyurea in rats (Gupta and Yaffe, (1982) Pediatr Pharmacol (New York) 2:85-91; Vaughan et al., (1989) Cancer Chemother Pharmacol 23:26-30).
At 14 days post injury the animals were sacrificed and morphometric analysis was carried out in order to asses the histopathological changes in the vessel wall (FIG. 1). […] HU afforded similar vascular protective effects to those observed with Didox and Imidate, resulting in a 55% decrease in neointimal area and a 63% decrease in intima/media ratio (FIG. 2). […] However, because the remodeling process occurs over a prolonged period of time, additional studies were performed in order to determine whether the vascular protective effects observed would be mitigated over time.
To further investigate long-term efficacy of the one week dosing regimen, the duration of the study period was increased to 6 weeks. […] The beneficial effect of ribonucleotide reductase inhibition persisted over the long term. Each compound (200 mg kg^−1 d^−1) was given i.p. for a period of 7 days followed by a 5 week recovery period. […] Similarly, Imidate offered a 61% reduction in neointimal area and a 62% reduction in intima/media ratio (FIG. 3).

[3] = test system: Rat vascular smooth muscle cells; test: SMC proliferation, cell count by flow cytometry; type: cell-based; conditions: 24 hours incubation, cells counted by flow cytometry, read-out: IC50 on inhibition of smooth muscle cell growth
Method: SMC were plated on 6 well dishes at a density of 2×10^5 cells per well. Cells were then treated with Didox (0-200 μM), Imidate (0-200 μM) or HU (0-1000 μM) and incubated for 24 hours. Following the 24 hour incubation period, the cells were trypsinized and collected in 15 mL centrifuge tubes. The cells were then centrifuged 5 minutes at 800×g. The supernatant was discarded and the pellet was resuspended in 5 ml PBS. The cells were centrifuged 6 minutes at 200×g. The supernatant was removed and the pellet was then thoroughly resuspended in 0.5 ml PBS. The cell suspension was transferred into tubes containing 70% ethanol, keeping the cells in fixative for greater than about 2 hours. The ethanol suspended cells were centrifuged 5 minutes at 200×g, and the ethanol was decanted. The cell pellet was resuspended in 5 ml PBS and after one minute was centrifuged 5 min at 200×g. The top layer of liquid was again removed and the cell pellet was resuspended in 1 ml PI/Triton X-100 staining solution with RNAse A. This staining solution was then incubated at room temperature for 30 minutes. Flow cytometry was then performed using a FACS Calibur (Becton Dickenson). The data are presented as the mean.
Didox, Imidate, and to a much lesser degree, HU, are known to be ribonucleotide reductase inhibitors (Elford, (1968) Biochem Biophys Res Commun 33:129-135; Elford et al., (1970) J Biol Chem 245:5228-5233; Elford et al., (1979) Cancer Res 39:844-851). ribonucleotide reductase catalyzes the reductive conversion of ribonucleotides to deoxynucleotides. This reductive reaction is a prime target for impeding cellular proliferation, and therefore amenable to inhibiting VSMC replication, because it is a rate limiting step in the biochemical pathway leading to DNA synthesis (Elford et al., (1970) J Biol Chem 245:5228-5233; Elford et al., (1979) Cancer Res 39:844-851; Takeda and Weber, (1981) Life Sci 28:1007-1014; Natsumeda et al., (1985) Cancer Res 45:2556-2559). […] Therefore, the IC50 of each compound on inhibition of smooth muscle cell growth was determined. […]

SMC dATP pools = test: Intracellular dNTP quantitation (dATP pools) by HPLC; type: cell-based, rat; conditions: 24 hours; for dATP levels: control 303; for maximal reduction in dATP content: Didox 0-200 μM, Imidate 0-200 μM, HU 0-1000 μM
Method: SMC were plated in T150 flasks and treated with Didox (0-200 μM), Imidate (0-200 μM) or HU (0-1000 μM) and incubated for 24 hours. Following the 24 hour incubation period, the cells were trypsinized and collected in 50 mL centrifuge tubes along with the incubation media. All the extraction steps were performed on ice. Immediately before processing, cells were counted and viability determined using the trypan blue exclusion method. The cells were then centrifuged 5 minutes at 800×g. The cell pellet was then deproteinized with the same volume of 6% TCA, vortexed for 20 s and incubated on ice for 10 minutes. The acid cell extracts were centrifuged 10 min at 2000×g. The supernatants were then supplemented with an equal volume of distilled water, vortexed for 60 s and neutralized by the addition of 5M K2CO3 prior to HPLC analysis. dNTP detection was carried out using an ESA (Chelmsford, Mass.) HPLC chromatographic system with UV-Vis detection. Chromatographic separations were performed using a TosoHaas C18 reverse phase column (ODS 80Tm 250×4.6 mm, 5 μm pore). The mobile phase was delivered at a rate of 1.0 mL/min during the analysis using the following stepwise gradient elution program: A-B (80-20) at 0 min; (40-60) at 30 min; (40-60) at 40 min and (80-20) at 45 min. Buffer A contained 10 mM tetrabutylammonium sulfate, 10 mM KH2PO4 and 0.25% MeOH, and adjusted to pH 6.9. Buffer B consisted of 5.6 mM tetrabutylammonium sulfate, 50 mM KH2PO4 and 30% MeOH, and neutralized to pH 7.0. The injection volume for analysis was 50 μL. Detection was carried out at 254 nm.
In order to further validate that the observed anti-proliferative properties afforded by these compounds was through inhibition of ribonucleotide reductase activity, the effects of these compounds on intracellular dATP pools were measured.

rat vascular SMC = test: Smooth muscle cell migration, wound scrape assay with PDGF; type: cell-based; conditions: for SMC migratory rate: 100 μM, PDGF 10 ng/mL, 24 hour period, control 15.8
Method: A wound scrape assay was performed using rat vascular SMC. The cells were grown to confluence on 60 mm dishes. The cells were then made quiescent by incubating them in media containing 0.1% serum for 24 hrs followed by treatment with Didox, Imidate (0-100 μM), or HU (0-1000 μM) in media containing 0.1% serum and platelet derived growth factor (PDGF) at concentration of 10 ng/mL. Linear wounds were made by scraping each plate with the tip of a 20 μL pipette. The ability of cells to migrate across the wound area was measured using digital microscopy. SPOT advanced software (Diagnostic Instruments, Inc., Sterling Heights, Mich.) was used to measure the wound immediately, 2, 4, 12 and 24 hrs following injury. The data are presented as rate of migration and represent the mean±SD.
SMC migration is also a component of neointimal proliferation. Therefore, additional studies were performed in order to determine the effects of these compounds on SMC migration. Using a wound scrape assay, SMC migration studies were carried out in the presence of Didox, Imidate, and HU. VSMC's were cultured to confluence on 60 mm dishes. The cells were made quiescent by incubating in media containing 0.1% serum. Following 24 hours of serum deprivation, Didox, Imidate, and HU were added to the wells (10-1000 μM) in the presence of PDGF (10 ng/mL) and a linear wound was made across the plate. SMC migration across the wound was monitored by digital microscopy over a 24 hour period. […] In contrast, HU (100 μM) had little effect on SMC migration, resulting in a migratory rate of […] (FIG. 4). […] This would be expected to contribute to the vascular protective effects afforded by these drugs.

[4] = 6 weeks post injury, 5 week recovery

| Compound | Lumen, % change as compared to injured vessel (increase in lumen area) [1] | Neointima, % change as compared to injured vessel (decrease in neointimal formation) [1] | Neointima/Media, % change as compared to injured vessel (reduction in intima/media ratio) [1] | Wall Thickness, % change as compared to injured vessel (reduction) [1] | decrease in neointimal area [2, 4] | decrease in intima/media ratio ([2]; 14 days post injury) | decrease in neointimal area ([2]; 14 days post injury) | pIC50 ([3]; Rattus norvegicus) | dATP levels (SMC dATP pools; 5 μM) | dATP levels (SMC dATP pools; 100 μM) | dATP levels (SMC dATP pools; 500 μM) | dATP levels (SMC dATP pools; 1000 μM) | maximal reduction in dATP content (SMC dATP pools) | SMC migratory rate (rat vascular SMC) | effect on SMC migration (rat vascular SMC; HU concentrations up to 1 mM, listed as HU) | change in medial area ([2]; one week of systemic administration after balloon injury) | dATP levels (SMC dATP pools; 10 μM) | dATP levels (SMC dATP pools; 50 μM) | dATP levels (SMC dATP pools; 200 μM) | pIC50 [3] |
| --- | --- | --- | --- | --- | --- | --- | --- | --- | --- | --- | --- | --- | --- | --- | --- | --- | --- | --- | --- | --- |
| NC(=O)NO [Hydroxyurea, reference compound] | ↑22 ± 5% | ↓ 91 ± 6% | ↓ 93 ± 7% | ↓ 54 ± 9% | 71% | 63% | 55% | 3.58 | 320 Pmoles/10^7 cells | 266 Pmoles/10^7 cells | 93 Pmoles/10^7 cells | 92 Pmoles/10^7 cells | 69% | 15.1 µm/h | No further inhibition; also recorded: no effect on SMC migration | – | – | – | – | – |
| CCOC(=N)c1cc(O)c(O)c(O)c1.Cl [Imidate, ethyl-3,4,5-trihydroxybenzenecarboximidate-HCl] | ↑19 ± 5% | ↓ 65 ± 7% | ↓ 69 ± 8% | ↓ 41 ± 7% | 61% | 55% and 60% | 57% | 4.09 | 293 Pmoles/10^7 cells | 184* Pmoles/10^7 cells | – | – | 42% | 0.9 µm/h | – | small but statistically significant decrease in medial area | 311 Pmoles/10^7 cells | 210 Pmoles/10^7 cells | 173* Pmoles/10^7 cells | – |
| O=C(NO)c1ccc(O)c(O)c1 [Didox, N-3,4-trihydroxybenzamide] | – | – | – | – | 64% | 61% and 60% | 62% | – | 297 Pmoles/10^7 cells | 140* Pmoles/10^7 cells | – | – | 58% | 1.7 µm/h | – | – | 260 Pmoles/10^7 cells | 203* Pmoles/10^7 cells | 126* Pmoles/10^7 cells | 4.17 |
